Patent publication US6228861A, “Dihydropyrimidines and uses thereof” (Synaptic Pharmaceutical Corporation, priority 1998, dated 2001)
Read-outs that look alike come from different tables or passages of the source.

Legend:
[1] = target: T1, α1D Human Adrenergic Receptor (Homo sapiens, UniProt P25100); assay: [3H]prazosin radioligand binding, cloned human α1D receptor; conditions: LM(tk-) membranes, [3H]prazosin 0.5 nM, 37° C., 20 min
T1 construct: The entire coding region of α1D (1719 bp); expressed in transfected cells; membranes
T1 sequence (P25100 1-572): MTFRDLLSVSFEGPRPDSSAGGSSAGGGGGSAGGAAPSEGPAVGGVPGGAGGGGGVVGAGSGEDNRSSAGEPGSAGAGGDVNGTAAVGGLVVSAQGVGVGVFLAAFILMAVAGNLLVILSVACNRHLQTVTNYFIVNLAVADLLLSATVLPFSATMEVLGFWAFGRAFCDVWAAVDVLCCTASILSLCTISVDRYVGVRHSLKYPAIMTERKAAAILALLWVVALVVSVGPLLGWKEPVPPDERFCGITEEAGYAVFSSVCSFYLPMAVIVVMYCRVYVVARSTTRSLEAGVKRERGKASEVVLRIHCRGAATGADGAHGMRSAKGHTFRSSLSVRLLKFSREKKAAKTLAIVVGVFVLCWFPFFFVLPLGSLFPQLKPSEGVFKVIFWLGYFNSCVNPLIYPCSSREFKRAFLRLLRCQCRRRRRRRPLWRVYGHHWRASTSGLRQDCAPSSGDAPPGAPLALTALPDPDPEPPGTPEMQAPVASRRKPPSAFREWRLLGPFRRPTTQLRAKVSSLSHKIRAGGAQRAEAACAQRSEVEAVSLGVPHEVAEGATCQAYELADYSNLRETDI
Description: (§1) Binding affinities were measured for selected compounds of the invention at six cloned human alpha-1 and alpha-2 receptor subtypes, as well as at the L-type calcium channel. The protocols for these experiments are given below.
(§2) The activity of compounds at the different human receptors was determined in vitro using cultured cell lines that selectively express the receptor of interest. These cell lines were prepared by transfecting the cloned cDNA or cloned genomic DNA or constructs containing both genomic DNA and cDNA encoding the human α-adrenergic receptors as follows:
The entire coding region of α1D (1719 bp), including 150 base pairs of 5' untranslated sequence t5' UT) and 300 bp of 3' untranslated sequence (3' UT), was cloned into the BamHI and ClaI sites of the polylinker-modified eukaryotic expression vector pCEXV-3, called EXJ.HR. […]
(§3) Transfected cells from culture flasks were scraped into 5 ml of 5 mM Tris-HCl, 5 mM EDTA, pH 7.5, and lysed by sonication. […] Nonspecific binding was determined in the presence of 10 μM phentolamine. […] Inhibition experiments, routinely consisting of 7 concentrations of the tested compounds, were analyzed using a non-linear regression curve-fitting computer program to obtain Ki values.

[2] = target: T2, α1B Human Adrenergic Receptor (Homo sapiens, UniProt P35368); assay: [3H]prazosin radioligand binding, cloned human α1B receptor; conditions: LM(tk-) membranes, [3H]prazosin 0.5 nM, 37° C., 20 min
T2 construct: The entire coding region of α1B (1563 bp); expressed in transfected cells; membranes
T2 sequence (P35368 1-520): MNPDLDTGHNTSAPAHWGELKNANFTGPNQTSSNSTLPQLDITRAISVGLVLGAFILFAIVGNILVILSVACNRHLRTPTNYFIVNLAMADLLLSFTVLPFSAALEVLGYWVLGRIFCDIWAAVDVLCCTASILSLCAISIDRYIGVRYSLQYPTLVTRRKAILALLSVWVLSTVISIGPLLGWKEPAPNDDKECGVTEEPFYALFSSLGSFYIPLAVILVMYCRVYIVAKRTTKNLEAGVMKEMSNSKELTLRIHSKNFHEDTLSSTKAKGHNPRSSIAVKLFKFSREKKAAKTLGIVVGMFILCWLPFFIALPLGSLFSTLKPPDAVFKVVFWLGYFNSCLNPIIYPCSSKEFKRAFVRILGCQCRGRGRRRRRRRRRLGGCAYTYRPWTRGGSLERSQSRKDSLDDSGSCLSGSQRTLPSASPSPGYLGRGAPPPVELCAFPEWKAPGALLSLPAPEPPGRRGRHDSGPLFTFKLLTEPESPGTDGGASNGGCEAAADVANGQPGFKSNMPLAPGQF
Description: as §1, §2
(§4) The construct involved the ligation of partial overlapping human lymphocyte genomic and hippocampal cDNA clones: 5' sequence were contained on a 1.2 kb SmaI-XhoI genomic fragment (the vector-derived -BamHI site was used for subcloning instead of the internal insert-derived SmaI site) and 3' sequences were contained on an 1.3 kb XhoI-ClaI cDNA fragment (the ClaI site was from the vector polylinker). […]
as §3

[3] = target: T3, α1A Human Adrenergic Receptor (Homo sapiens, UniProt P35348); assay: [3H]prazosin radioligand binding, cloned human α1A receptor; conditions: LM(tk-) membranes, [3H]prazosin 0.5 nM, 37° C., 20 min
T3 construct: The entire coding region of α1A (1401 bp); expressed in transfected cells; membranes
T3 sequence (P35348 1-466): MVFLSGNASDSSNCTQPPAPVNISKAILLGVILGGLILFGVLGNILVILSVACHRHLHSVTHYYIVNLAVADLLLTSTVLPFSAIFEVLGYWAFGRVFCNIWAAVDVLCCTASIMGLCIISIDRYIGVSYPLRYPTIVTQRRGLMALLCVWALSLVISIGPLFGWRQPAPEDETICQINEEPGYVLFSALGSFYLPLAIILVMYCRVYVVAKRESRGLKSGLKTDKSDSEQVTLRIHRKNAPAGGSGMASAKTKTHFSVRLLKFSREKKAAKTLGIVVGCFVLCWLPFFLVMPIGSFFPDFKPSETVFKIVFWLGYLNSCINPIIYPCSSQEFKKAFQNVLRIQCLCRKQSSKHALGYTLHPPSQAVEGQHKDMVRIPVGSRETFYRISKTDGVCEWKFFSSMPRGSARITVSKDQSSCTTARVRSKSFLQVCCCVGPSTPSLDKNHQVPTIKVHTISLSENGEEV
Description: as §1, §2, §4
Transfected cells from culture flasks were scraped into 5 ml of 5 mM Tris-HCl, 5 mM EDTA, pH 7.5, and lysed by sonication. […] Nonspecific binding was determined in the presence of 10 μM phentolamine. […]

[4] = cited from earlier work
[5] = literature, BPH patients; cited from earlier work

Structure (SMILES) | side effects ([4]; literature) | usefulness in BPH [5] | also measured
COCC1=C(C(C)=O)C(c2cc(F)c(F)c(F)c2)N(C(=O)NCCN[C@H]2CC[C@](C#N)(c3ccccc3)CC2)C(=O)N1.Cl (stereo partly drawn) [Example 2, cis-6-(3,4,5-Trifluorophenyl)-1-{N-[2-(4-cyano-4 phenyl-cyclohexylamino)ethyl]}-carboxamido-5-acetyl-4-methoxymethyl-2-oxo-1,2,3,6 - tetrahydropyrimidine hydrochloride] |  |  | hα1D pKi [1]: 7.05; hα1B pKi [2]: 7.76; hα1A pKi [3]: 9.51
Clc1cccc(Cl)c1N=C1NCCN1 [clonidine] | dry mouth and sedation |  | 
CC(COc1ccccc1)N(CCCl)Cc1ccccc1 (stereo not shown) [phenoxybenzamine] | significant side effects such as dizziness and asthenia | useful in relieving the symptoms of BPH | 
COc1cc2nc(N3CCN(C(=O)c4ccco4)CC3)nc(N)c2cc1OC [prazosin] |  | useful for treating BPH | side effects ([4]; in vivo): untoward side effects
COc1cc2nc(N3CCN(C(=O)C4CCCO4)CC3)nc(N)c2cc1OC (stereo not shown) [terazosin] | untoward side effects | useful for treating BPH | 
